# Patent US6083982A, “Natriuretic compounds” (Loma Linda University Medical, priority 1998, dated 2000)
# Values joined by “and” are separate entries in the source; they are usually repeats but may differ in a detail not shown here. Equal entries are not always repeated. “Also recorded” adds a separate entry of the source.
# How the values were obtained:
# [1] = Chemical stability (physical properties); type: physicochemical
# [2] = Free radical scavenging
# [3] = test system: conscious rats; assay: In vivo bioassay for natriuresis, kaliuresis, diuresis and mean arterial pressure in conscious rats; design: species or system female Sprague-Dawley rats; conditions: for Natriuretic Response (R): Rn = SR/FR, >0.67 active
# Method: Female Sprague-Dawley (Harlan) rats (200-250 g) were cannulated in the femoral artery and vein for monitoring of mean arterial pressure (MAP) and infusion of saline and samples, respectively. The bladder was catheterized for collection of urine in ten-minute periods. Furosemide (0.4 mg/kg bwt; 1 mg/mL in 0.17% saline) was infused as a positive control at the beginning of the sixth ten-minute period. The sample was infused at the beginning of the seventeenth ten-minute period. Urine was collected for another 150 minutes. The volume of the urine was determined gravimetrically and the Na^+ and K^+ concentrations determined with a Beckman E2A electrolyte analyzer.
# The natriuretic response of a sample was normalized to the dose of furosemide infused. The net sodium excretion for the infusion of furosemide or sample was calculated as follows. The median sodium excretion value (μmoles Na^+ /10 minute period) for the five periods before infusion of furosemide or sample was used to establish a baseline value for the calculation of ΔUNaV(=μmoles Na^+ period-baseline μmoles Na^+) for administration of either furosemide or sample respectively. The sum of ΔUNaV for the four periods following infusion of furosemide was the net sodium excreted for furosemide, defined as FR. The sum of ΔUNaV for the fifteen periods following infusion of the sample was the net sodium excreted for the sample defined as SR. The natriuretic ratio Rn (or normalized natriuretic response) of a sample was calculated by dividing SR by FR(Rn =SR/FR).
# [4] = molecular target: Na^+ /K^+ -ATPase (Bos taurus, UniProt Q08DA1); assay: Na+/K+-ATPase (sodium pump) inhibition assay, 86Rb+ uptake in MDBK cells; type: cell-based, bovine (Madin-Darby bovine kidney cells); conditions: 0.2-200 ng/well
# Method: The assay in MDBK cells has been described previously (see Benaksas et al., above). The assay is described briefly here. Madin-Darby bovine kidney (MDBK) cells (ATCC:CCL22) were maintained in Dulbecco's Modified Eagle's Medium (DMEM) with 5% Fetal Bovine Serum and 5% Bovine Calf Serum in a 5% CO2 /95% humidified air atmosphere at 37° C. and split (1:2) once per week.
# One day before the assay, cells were plated in a 96-well plate at a density of 5×10^5 cells/well in DMEM with serum. On the day of the assay the medium was removed and the cells washed with phosphate buffered saline (PBS) before addition of 100 μL of assay media (122 mM NaCl, 1.8 mM CaCl2, 0.8 mM MgSO4, 24 mM NaHCO3, 1 mM sodium pyruvate, 25 mM glucose, 14 mM glycylglycine, 0.2% phenol red, 8 mM Na2 HPO4 1.15 mM KH2 PO4, pH 8.0) and 100 μl of sample. The plate was preincubated for 30 minutes at 37° C., then chilled on ice for 10 minutes. To each well was added 0.15 μCi ^86 RbCl (Amersham) in 10 μL of assay media. The plate was then incubated at 37° C. for 10 minutes. A portion (100 μL) of the supernatant was counted with 0.5 mL of scintillation cocktail in a liquid scintillation counter. As a control for Na^+ /K^+ -ATPase inhibition, a dose response curve for ouabain in the range of 10^-5 -10^-8 M was obtained. Intra-experiment coefficient of variation for ouabain was 3-15%. […]
# [5] = literature statement; cited from earlier work
smiles,measurement,setting,value
"Cc1c(O)cc2c(c1C)OC(C)(CCC(=O)O)CC2 (stereo not drawn) [LLU-α, 6-hydroxy-2,7,8-trimethylchroman-2-propanoic acid]",stability in CDCl3,[1]; CDCl3,Unstable
same,stability in dilute base,[1]; dilute base,instability in dilute base; also recorded: Unstable
same,free radical scavenging,[2],cardio-selective free radical scavenger
same,natriuretic activity,"[3]; 8 μg/kg, further purified on acetic acid/acetonitrile RP-HPLC (seventh step)",active
same,natriuretic dose-response curve,[3]; Table III,narrow and biphasic
same,natriuretic activity of isolates,[3]; crude isolates from second RP-HPLC step,natriuretically active
same,sodium excretion in urine relative to potassium excretion,[3]; in mammals,increasing sodium excretion in the urine in mammals without a corresponding increase in potassium excretion
same,kaliuresis (potassium excretion) on infusion,[3]; infused into conscious rats,no detectable kaliuresis
same,natriuresis on infusion,[3]; infused into the rat (FIGS. 3A and B),sustained natriuresis
same,effect on blood pressure,"[3]; infused into the rat, data not shown",no effect on blood pressure
same,change in mean arterial pressure,"[3]; on infusion, conscious rats",does not cause a significant change in mean arterial pressure; also recorded: Neither LLU-α nor -γ caused a significant change in mean arterial pressure
same,natriuretic activity at lower or higher doses,"[3]; partially purified (sixth purification step), doses below or above 4-8 μg/kg",no activity
same,natriuretically active dose range,"[3]; partially purified, silica gel HPLC (sixth purification step)",4 to 8 µg/kg
same,Natriuretic Response (R),"[3]; silica gel HPLC fraction 17, dose 0.2 μg",-0.14
same,Natriuretic Response (R),"[3]; silica gel HPLC fraction 17, dose 1 μg",0.27
same,Natriuretic Response (R),"[3]; silica gel HPLC fraction 17, dose 2 μg",1.14 and 0.75
same,Natriuretic Response (R),"[3]; silica gel HPLC fraction 17, dose 10 μg",0.26
same,Natriuretic Response (R),"[3]; silica gel HPLC fraction 18, dose 56.4 μg",0.23
same,Natriuretic Response (R),"[3]; silica gel HPLC fraction 18, dose 224 μg",0.02
same,Natriuretic Response (R),"[3]; silica gel HPLC fraction 19, dose 0.2 μg",0.24
same,Natriuretic Response (R),"[3]; silica gel HPLC fraction 19, dose 1 μg",0.93
same,Natriuretic Response (R),"[3]; silica gel HPLC fraction 19, dose 10 μg",0.09
same,Na^+ /K^+ -ATPase inhibition,[4],no inhibition
C[C@@H]1O[C@@H](O[C@H]2C[C@@H](O)[C@]3(CO)[C@H]4[C@H](O)C[C@]5(C)[C@@H](C6=CC(=O)OC6)CC[C@]5(O)[C@@H]4CC[C@]3(O)C2)[C@H](O)[C@H](O)[C@H]1O [Ouabain],natriuretic activity,[5],"not, however, natriuretic"
C[C@H]1O[C@@H](O[C@H]2[C@@H](O)C[C@H](O[C@H]3[C@@H](O)C[C@H](O[C@H]4CC[C@@]5(C)[C@H](CC[C@@H]6[C@@H]5C[C@@H](O)[C@]5(C)[C@@H](C7=CC(=O)OC7)CC[C@]65O)C4)O[C@@H]3C)O[C@@H]2C)C[C@H](O)[C@@H]1O [digoxin],natriuretic activity,[5],"not, however, natriuretic"
